US20250134913A1, “ORAL DOSAGE FORMS OF TRβ AGONIST VK2809 FOR THE TREATMENT OF LIVER DISORDERS AND METHODS OF PREPARING THE SAME” (Viking Therapeutics, Inc., priority 2022, published 2025)
In brackets after ≈: the same amount, converted by molar mass.

Experiments:
Assay type in all cases: physicochemical
[1] = Equilibrium solubility of crystalline Compound 1 (supernatant concentration after ultracentrifugation); conditions: 37° C.
Description: Experimental values for solubility, listed in Table 2, were obtained by measuring supernatant concentrations after centrifugation at 386,000×g.

physchem = experiment: physchem
Protocol: The amorphous solubility of amorphous Compound 1 was determined by slow addition of the API from an organic stock solution into the aqueous medium of interest. When the amorphous solubility was reached, a drug rich phase formed and was measured by detection by scattering of UV/Visible light and/or by dynamic light scattering (DLS).
The solubility of amorphous Compound 1 was evaluated in PBS at pH 6.5 alone and with 0.5% simulated intestinal fluid (SIF). […] The onset of scattering in the SIF containing media occurred after 180-210 μg/mL Compound 1. […] This is consistent with the initial solubility testing where the crystalline solubility in PBS in the absence of bile salts is exceedingly low.

[2] = Gastric-to-intestinal buffer (G-IB) transfer non-sink dissolution test
Protocol: The SDDs were evaluated in a non-sink dissolution test designed to monitor dissolution rate, as well as inhibition of crystallization, on transfer from simulated gastric to simulated intestinal media. For the gastric-to-intestinal buffer (G-IB) transfer dissolution test, pH 2 (“gastric”; “G”) media was added to each sample at a target dose concentration of 1000 μg Compound 1/mL. After 30 minutes of exposure to gastric media, concentrated simulated intestinal buffer was added to reach a final composition of 0.5% SIF in PBS, pH 6.5 at half the dose concentration (500 μg Compound 1/mL). This dose concentration was selected at twice the estimated amorphous solubility in an attempt to discriminate on dissolution rate and sustainment of supersaturation simultaneously. The concentration was monitored by UV fiber optic probes in situ (stir rate: 100 revolutions per minute) as well as being assessed by either microcentrifugation (15,800×g) or ultracentrifugation (300,000×g). The microcentrifuge separated the precipitate (undissolved drug) and total solubilized drug. Total solubilized drug consists of three solubilized species: freely solubilized drug (“free drug”), drug associated with bile salt micelles (“micelle bound drug”), and drug in small aggregate roughly 50-300 nm in size (“colloidal drug”). The ultracentrifuge further separates the colloidal drug and the supernatant contains only free drug and micelle bound drug. These three species have different activities in vivo and can be used to help differentiate formulations. Free drug is the smallest species and is the only species considered to partition directly into the cell membrane of the epithelium. Micelle bound drug can cross the unstirred mucous boundary layer and source free drug once a concentration gradient has been created by freely solubilized drug being absorbed. Finally, the drug-polymer colloids are a source of rapidly dissolving drug and may, in some cases, penetrate the unstirred mucous boundary layer (Stewart et al. Mol. Pharmaceutics, 2017, 12, 2437-2449)
All SDD formulations containing enteric polymers reached the amorphous solubility in intestinal buffer within 10 minutes. […] The exact reason for this shift is currently unknown. It may be attributable to detector saturation, arising from the undissolved solids, or a specific interaction between the drug and polymer in solution.

[3] = Open stability of spray dried dispersions by HPLC; conditions: Stored at Room Temp.
Protocol: The stability samples were tested using H-PLC using the method in Table 4.
The stability samples were tested for assay and related substances. […] This is mainly due to an API process-related impurity.

[4] = Closed stability packaging study of spray dried dispersions by HPLC; conditions: Stored at Room Temp.
Protocol: Due to the extensive degradation observed after 2 weeks at 40° C./75% RH open, a closed with desiccant condition stability study was initiated for Compound 1 SDDs. Samples were evaluated for stability at 2 weeks, 6 weeks, and 3 months when stored in 4 mL scintillation vials and sealed in 60 cc HDPE bottles with heat induction sealing and 0.5 g desiccant.
Chemical stability of Compound 1 SDDs after 2 weeks under closed conditions was evaluated by HPLC using the method provided herein in Table 4. […] All SDDs containing cellulosic polymers show the same growth of an impurity after 2 weeks at 40/75 closed. Upon closer inspection, this impurity is present in the in-going API at a level that was below the threshold used for integration. […] Further evidence of unknown degradants that may form during manufacture and co-elute with known synthetic impurities was observed. Closed stability degradation data at two weeks is provided in Table 6, while closed stability degradation data at six weeks is provided in Table 7. Additionally, no changes in particle morphology and crystallinity for the SDDs after 6 weeks at 40° C./75% RH were observed.

[5] = Closed stability packaging study of PVP-VA SDDs by HPLC; conditions: Stored at Room Temp.
Protocol: Chemical stability of PVP-VA-containing SDDs of Compound 1 under closed conditions was evaluated by HPLC using the method provided herein in Table 4.

[6] = Stability study of tablet formulations; conditions: Stored at Room Temp.
Protocol: Tablet formulations were subjected to a stability study. Tablets were packaged in heat sealed HDPE bottles with minimal headspace and stored in temperature-controlled stability chambers at 50° C., 40° C., and 25° C., and 5° C. Humidity in the chambers was either controlled or allowed to be at ambient humidity. The conditions are listed for each particular formulation in Table 11 below.

Ultracentrifuge Concentration ([1]; 0.01N HCl, 90 min): <0.05 μg Compound 1/mL
Ultracentrifuge Concentration ([1]; 0.01N HCl, 20 hours): <0.05 μg Compound 1/mL
Ultracentrifuge Concentration ([1]; 0.5% Simulated intestinal fluid (SIF) in PBS, pH 6.5, 90 min): 92 μg Compound 1/mL
Ultracentrifuge Concentration ([1]; 0.5% Simulated intestinal fluid (SIF) in PBS, pH 6.5, 20 hours): 87 μg Compound 1/mL
Ultracentrifuge Concentration ([1]; PBS, pH 6.5, 90 min): <0.05 μg Compound 1/mL
Ultracentrifuge Concentration ([1]; PBS, pH 6.5, 20 hours): 0.6 μg Compound 1/mL
solubility (physchem; 37 °C, pH 6.5, fassif, kinetic from dmso stock): 180 to 210 µg/mL (≈ 350 to 408 µM)
Concentration, IB 10 min, micro ([2]; 0.5% SIF in PBS pH 6.5, 10 min, microcentrifuge, dose 500 μg/mL): 39 μg Compound 1/mL
Concentration, IB 10 min, ultra ([2]; 0.5% SIF in PBS pH 6.5, 10 min, ultracentrifuge, dose 500 μg/mL): 49 μg Compound 1/mL
Concentration, IB 90 min, micro ([2]; 0.5% SIF in PBS pH 6.5, 90 min, microcentrifuge, dose 500 μg/mL): 88 μg Compound 1/mL
Concentration, IB 90 min, ultra ([2]; 0.5% SIF in PBS pH 6.5, 90 min, ultracentrifuge, dose 500 μg/mL): 88 μg Compound 1/mL
Concentration, G 20 min, micro ([2]; gastric media pH 2, 20 min, microcentrifuge, dose 1000 μg/mL): 0 μg Compound 1/mL
Compound 1 Relative abundance [3]: 97.61%
Impurities Relative abundance [3]: 2.47%
Compound 1 Relative abundance ([4]; 2 week analysis): 97.07%
Impurities Relative abundance ([4]; 2 week analysis): 2.95%
Compound 1 Relative abundance ([4]; 6 week analysis): 97.70%
Impurities Relative abundance ([4]; 6 week analysis): 2.33%
Compound 1 Relative abundance [5]: 97.54%
Impurities Relative abundance [5]: 2.33%
Compound 1 Relative abundance ([6]; 2 month analysis): 97.22%
Impurities Relative abundance ([6]; 2 month analysis): 2.78%
Compound 1 Relative abundance ([6]; 3 month analysis): 97.45%
Impurities Relative abundance ([6]; 3 month analysis): 2.55%
Compound: Cc1cc(OC[P@@]2(=O)OCC[C@@H](c3cccc(Cl)c3)O2)cc(C)c1Cc1ccc(O)c(C(C)C)c1 [Compound 1]
Amorphous solubility behaviour (physchem; pH 6.5): precipitated as soon as the stock solution was introduced to the medium
